Experimental data as given in PMC7284870, “Antimicrobial Peptides from Rat-Tailed Maggots of the Drone Fly Eristalis tenax Show Potent Activity against Multidrug-Resistant Gram-Negative Bacteria” (Microorganisms, 2020).
pIC50: −log10 of the molar value. ≈ marks a conversion by molar mass, not a printed value. Read-outs that look alike come from different tables or passages of the source. Residues, ends and D or L forms follow the SMILES beside them. No end group written: not given here.

How the values were obtained:
[1] = tested on: HepG2 cells; assay: Cytotoxicity (ATP quantification and neutral red uptake)
Method: The cytotoxicity of the AMPs was determined in 96-well microtiter plates with an assay volume of 200 µL. The peptides were dissolved in PBS and a 1:2 dilution series in DMEM-F12 medium (supplemented with 1% nonessential amino acids, 1% sodium pyruvate, and 5% heat-inactivated fetal calf serum) was prepared in nine steps to produce test concentrations of 400, 200, 100, […], 12.5, 6.25, 3.13, and 1.56 μM (1655–6.46 µg/mL for EtCec1-a, 1713–6.68 µg/mL for EtCec2-a, 1622–6.33 µg/mL for EtCec3-a, 2661–10.38 µg/mL for EtDip). Stocks of the mycoplasma-free HepG2 cell line HB-8065 (ATCC) stored in liquid nitrogen were seeded at a density of 20,000 cells/well into 96-well microplates in 100 μL DMEM-F12 supplemented as above. After incubation overnight at 37 ± 1 °C in a 5% CO2 atmosphere, 100 μL of the test solution was added per well in six replicates. Ketoconazole was used as a positive control and PBS as a negative control. The plates were incubated for 24 h, as above, and the cell viability was assessed using the luminescent CellTiter-Glo ATP monitoring kit (Promega) to determine the quantity of ATP.
HepG2 cells and peptides were prepared as described above, and cell viability was assessed based on the ability of lysosomes to store the dye neutral red (Sigma–Aldrich, ST. Louis, MO, USA). The cells were incubated for 3 h with a neutral red solution, washed twice, and lysed. After complete lysis, the quantity of neutral red was determined by measuring the absorption at 540 nm while using a Tecan Genios Pro plate reader.

[2] = tested on: Acinetobacter baumannii ATCC 19606; assay type: cell-based
Method: (§1) The strains that were used in this study (Table 2 and Table S1) were cultivated at 37 °C in cation-adjusted Mueller–Hinton broth (CAMB) in Erlenmeyer flasks, or on the same medium with agar in Petri dishes. Exceptionally, Mycobacterium smegmatis was cultivated at 37 °C in brain heart infusion (BHI) medium that was supplemented with 1% Tween-80 in Erlenmeyer flasks, or on the same medium lacking detergent but with agar in Petri dishes. Strains listed with Robert Koch Institute (RKI) strain numbers are clinical isolates from the RKI strain collection originating from hospitalized patients in Germany. The remaining strains originated from the Sanofi strain collection and they were originally purchased from the American Type Culture Collection or the German Collection of Microorganisms and Cell Cultures. Meropenem/colistin-resistant strains were maintained, as described above, with the appropriate antibiotic added at levels below the minimal inhibitory concentration (MIC).
(§2) The MIC values were determined in 384-well microtiter plates with an assay volume of 20 µL. Immediately before each assay, the cultures of test organisms (bacteria grown for 18 h, Candida albicans and M. smegmatis grown for 48 h) were diluted with the appropriate medium to a density of 1 × 10^6 cells/mL (C. albicans), 1 × 10^5 cells/mL (M. smegmatis) or 5 × 10^5 cells per mL (other species). […] We transferred 2-µL aliquots from this dilution series to new 384-well microtiter plates while using a CyBio-Well 384-channel automated pipettor (Analytic Jena, Jena, Germany) and added 18 µL of the diluted suspension of each test species using a Viafill reagent dispenser (Integra), thus reducing the final peptide concentration 10-fold to the range 1024–0.03125 µg/mL. […] The growth of M. smegmatis was measured using the BacTiter-Glo luminescence test system (Promega, Madison, WI, USA). The growth of the other species was determined by visual inspection of the microtiter plate and turbidimetry based on the optical density at 600 nm (OD600). The MIC was defined as the peptide concentration at which no bacterial growth was observed. We supplemented the test medium with either 150 mM NaCl or 1.25 mM CaCl2 to represent monovalent and divalent cations to simulate physiological conditions.

[3] = tested on: Staphylococcus aureus ATCC 25923; assay type: cell-based
Method: as §1, §2

[4] = tested on: Pseudomonas aeruginosa ATCC 27853; assay type: cell-based
Method: as §1, §2

[5] = tested on: Escherichia coli D31; assay type: cell-based; settings: D31, 18 h
Method: as §1, §2

[6] = tested on: Klebsiella pneumoniae DSM 30104; assay type: cell-based
Method: as §1, §2

[7] = tested on: S. aureus ATCC 33592; assay type: cell-based, Staphylococcus aureus
Method: as §1, §2

[8] = tested on: E. coli RKI 131/08; assay: microbe, parasite or virus in culture; assay type: cell-based, Escherichia coli; settings: RKI 131/08, 18 h
Method: as §1, §2

[9] = tested on: K. pneumoniae RKI 93/10; assay: microbe, parasite or virus in culture; assay type: cell-based, Klebsiella pneumoniae; settings: RKI 93/10, 18 h
Method: as §1, §2

[10] = tested on: A. baumannii RKI 19/09; assay: microbe, parasite or virus in culture; assay type: cell-based, Acinetobacter baumannii; settings: RKI 19/09, 18 h
Method: as §1, §2

[11] = molecular target: human ERG (hERG) potassium channel (Homo sapiens, UniProt Q12809); assay: cell-based
Chain of human ERG (hERG) potassium channel (Q12809 whole entry): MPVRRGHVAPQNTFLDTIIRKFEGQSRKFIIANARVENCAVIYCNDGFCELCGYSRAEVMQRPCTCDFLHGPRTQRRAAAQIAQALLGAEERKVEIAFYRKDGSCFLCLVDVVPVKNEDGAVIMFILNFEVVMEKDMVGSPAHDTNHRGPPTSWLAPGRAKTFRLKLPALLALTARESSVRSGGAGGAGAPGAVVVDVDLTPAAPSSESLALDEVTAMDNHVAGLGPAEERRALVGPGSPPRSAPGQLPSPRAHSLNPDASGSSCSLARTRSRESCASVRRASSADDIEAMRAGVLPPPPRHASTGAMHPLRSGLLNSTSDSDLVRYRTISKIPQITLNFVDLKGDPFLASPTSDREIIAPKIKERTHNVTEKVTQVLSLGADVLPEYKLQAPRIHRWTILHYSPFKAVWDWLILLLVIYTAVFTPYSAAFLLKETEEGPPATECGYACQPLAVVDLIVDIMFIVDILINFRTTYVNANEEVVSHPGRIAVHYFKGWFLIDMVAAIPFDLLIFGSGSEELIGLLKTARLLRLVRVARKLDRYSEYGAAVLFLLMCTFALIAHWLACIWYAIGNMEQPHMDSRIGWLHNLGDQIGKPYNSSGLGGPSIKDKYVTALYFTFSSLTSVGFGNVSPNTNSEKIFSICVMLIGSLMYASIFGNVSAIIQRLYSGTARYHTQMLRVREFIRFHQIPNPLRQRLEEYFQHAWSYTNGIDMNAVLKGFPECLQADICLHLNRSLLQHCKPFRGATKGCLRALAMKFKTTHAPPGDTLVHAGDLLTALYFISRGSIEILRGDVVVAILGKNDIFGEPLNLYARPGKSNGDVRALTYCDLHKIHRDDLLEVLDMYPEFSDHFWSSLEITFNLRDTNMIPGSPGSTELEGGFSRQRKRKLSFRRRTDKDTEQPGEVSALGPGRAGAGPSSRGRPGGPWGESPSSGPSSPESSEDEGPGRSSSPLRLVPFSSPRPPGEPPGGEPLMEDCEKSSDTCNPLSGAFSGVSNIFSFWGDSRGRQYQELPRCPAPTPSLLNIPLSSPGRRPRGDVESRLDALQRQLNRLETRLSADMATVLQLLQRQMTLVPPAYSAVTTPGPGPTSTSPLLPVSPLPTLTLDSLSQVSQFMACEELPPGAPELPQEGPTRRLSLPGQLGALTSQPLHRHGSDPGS
Method: The interaction of the peptides with the human ERG (hERG) potassium channel was analyzed using the automated patch-clamp method. Chinese hamster ovary (CHO) hERG Duo cells constitutively expressing hERG (B’SYS) were diluted to 8 × 10^6 cells/mL in Ex-Cell CHO medium (Sigma–Aldrich) containing 25 mM HEPES, 100 U/mL penicillin-streptomycin, and 0.004% soybean trypsin inhibitor. The peptides were diluted from a stock concentration of 10 mM in DMSO to final concentrations of 0.12, 0.37, 1.1, 3.3, 10, and 30 μM (0.5–124 µg/mL for […], 0.51–128 µg/mL for EtCec2-a, 0.49–122 µg/mL for EtCec3-a, 0.8–200 µg/mL for EtDip) in extracellular medium (150 mM NaCl, 4 mM KCl, 2 mM CaCl2, 1 mM MgCl2, 10 mM HEPES, 10 mM glucose) containing 0.06% Pluronic F-68 and 0.3% residual DMSO. The response of hERG to each peptide was assessed while using a QPatch HTX station and QPlates (Sophion/Biolin Scientific, Ballerup, Denmark) by recording the tail current following channel repolarization. Half-maximal inhibitory concentrations (IC50) were determined from a series of six concentrations applied to the cells in ascending order. Terfenadine citrate was used as a positive control and extracellular medium as a negative control.

[12] = tested on: Proteus mirabilis DSM 4479; assay type: cell-based; settings: CAMB, 18 h, 37 °C, n = 4
Method: as §1, §2

[13] = tested on: Mycobacterium smegmatis ATCC 607; assay type: cell-based; settings: BHI, 48 h, 37 °C, BacTiter-Glo, n = 4
Method: as §1, §2

[14] = tested on: Listeria monocytogenes DSM 20600; assay type: cell-based; settings: CAMB, 18 h, 37 °C, n = 4
Method: as §1, §2

[15] = tested on: Enterococcus faecium DSM 17050; assay type: cell-based; settings: CAMB, 18 h, 37 °C, n = 4
Method: as §1, §2

[16] = tested on: Staphylococcus epidermidis ATCC 35984; assay type: cell-based; settings: CAMB, 18 h, 37 °C, n = 4
Method: as §1, §2

[17] = tested on: E. coli ATCC 25922
Method: as §1
The MIC values were determined in 384-well microtiter plates with an assay volume of 20 µL. Immediately before each assay, the cultures of test organisms (bacteria grown for 18 h, Candida albicans and M. smegmatis grown for 48 h) were diluted with the appropriate medium to a density of 1 × 10^6 cells/mL (C. albicans), 1 × 10^5 cells/mL (M. smegmatis) or 5 × 10^5 cells per mL (other species). The peptides were dissolved in sterile water at a concentration of 10.24 mg/mL and a 1:2 dilution series was prepared in a 384-well microtiter plate to achieve the concentration range 10,240–0.3125 µg/mL in a volume of 50 µL. We transferred 2-µL aliquots from this dilution series to new 384-well microtiter plates while using a CyBio-Well 384-channel automated pipettor (Analytic Jena, Jena, Germany) and added 18 µL of the diluted suspension of each test species using a Viafill reagent dispenser (Integra), thus reducing the final peptide concentration 10-fold to the range 1024–0.03125 µg/mL. The cells were incubated at 37 °C and 85% relative humidity, shaking at 180 rpm for 48 h (M. smegmatis), 24 h (C. albicans) or 18 h (other species). The growth of M. smegmatis was measured using the BacTiter-Glo luminescence test system (Promega, Madison, WI, USA). The growth of the other species was determined by visual inspection of the microtiter plate and turbidimetry based on the optical density at 600 nm (OD600). […] We supplemented the test medium with either 150 mM NaCl or 1.25 mM CaCl2 to represent monovalent and divalent cations to simulate physiological conditions.

[18] = tested on: Micrococus luteus DSM 20030; assay type: cell-based, Micrococcus luteus; settings: CAMB, 18 h, 37 °C, n = 4
Method: as §1
The MIC values were determined in 384-well microtiter plates with an assay volume of 20 µL. […] The growth of M. smegmatis was measured using the BacTiter-Glo luminescence test system (Promega, Madison, WI, USA). The growth of the other species was determined by visual inspection of the microtiter plate and turbidimetry based on the optical density at 600 nm (OD600). […]

[19] = tested on: Canida albicans FH2173; assay type: cell-based, Candida albicans; settings: CAMB, 24 h, 37 °C, n = 4
Method: as §1, §2

GFLKKVGKKLEGASDLTRDATIQTIAVAQAAANVAATAKQ-NH2 [EtCec3-NH2]
NOEC [1]: > 1622 µg/mL
MIC ([2]; ATCC 19606, 18 h): >1024 µg/mL
MIC ([3]; ATCC 25923, 18 h): >1024 µg/mL
MIC ([4]; ATCC 27853, 18 h): >1024 µg/mL
MIC [5]: 128 µg/mL
MIC ([6]; DSM 30104, 18 h): >1024 µg/mL
MIC ([7]; ATCC 33592, 18 h): >1024 µg/mL
MIC [8]: >1024 µg/mL
MIC [9]: >1024 µg/mL
MIC [10]: >1024 µg/mL
pIC50 [11]: < 4.52

CC(C)C[C@@H]1NC(=O)[C@@H]2CSSC[C@@H](C(=O)N[C@@H](CCCNC(=N)N)C(=O)N[C@@H](CCCCN)C(=O)O)NC(=O)[C@H](CC(N)=O)NC(=O)[C@@H]3CSSC[C@H](NC(=O)[C@H](C)NC(=O)[C@H](C)NC(=O)[C@H](CC(=O)O)NC(=O)[C@H](CCCCN)NC(=O)[C@H](C(C)C)NC(=O)[C@H](CC(N)=O)NC(=O)[C@H](CC(C)C)NC(=O)[C@H](Cc4ccccc4)NC(=O)[C@H](CO)NC(=O)[C@H](CC(C)C)NC(=O)[C@H](CC(C)C)NC(=O)[C@H](CC(=O)O)NC(=O)[C@@H](NC(=O)[C@@H](NC(=O)[C@H](C)N)[C@@H](C)O)CSSC[C@H](NC(=O)[C@H](Cc4ccc(O)cc4)NC(=O)CNC(=O)CNC(=O)[C@H](CCCNC(=N)N)NC(=O)[C@H](Cc4ccc(O)cc4)NC(=O)CNC(=O)[C@H](CCCCN)NC(=O)[C@H](C)NC1=O)C(=O)N[C@@H](CC(=O)O)C(=O)NCC(=O)N[C@@H](CCCNC(=N)N)C(=O)N[C@@H](CCCCN)C(=O)N[C@@H](C(C)C)C(=O)N3)C(=O)N[C@@H](C)C(=O)N[C@@H](C)C(=O)N[C@@H](Cc1c[nH]cn1)C(=O)N2 [EtDef4] (HELM PEPTIDE1{A.T.C.D.L.L.S.F.L.N.V.K.D.A.A.C.A.A.H.C.L.A.K.G.Y.R.G.G.Y.C.D.G.R.K.V.C.N.C.R.K}$PEPTIDE1,PEPTIDE1,3:R3-30:R3|PEPTIDE1,PEPTIDE1,16:R3-36:R3|PEPTIDE1,PEPTIDE1,20:R3-38:R3$$$V2.0)
MIC ([2]; CAMB, 18 h, 37 °C, n = 4): >128 µg/mL
MIC [12]: >128 µg/mL
MIC ([3]; CAMB, 18 h, 37 °C, n = 4): 16 µg/mL (≈ 3.73 µM)
MIC ([4]; CAMB, 18 h, 37 °C, n = 4): >128 µg/mL
MIC [13]: 32 µg/mL (≈ 7.46 µM)
MIC ([6]; CAMB, 18 h, 37 °C, n = 4): >128 µg/mL
MIC [14]: 16 µg/mL (≈ 3.73 µM)
MIC [15]: >128 µg/mL
MIC [16]: >128 µg/mL
MIC ([7]; CAMB, 18 h, 37 °C, n = 4): 16 µg/mL (≈ 3.73 µM)
MIC ([17]; CAMB + A000160918 [4 µg/mL]): 32 µg/mL
MIC ([17]; CAMB + A000161246 [4 µg/mL]): 128 µg/mL
MIC ([17]; CAMB + A000173031A [4 µg/mL]): 16 µg/mL
MIC ([17]; CAMB + A000173033A [4 µg/mL]): 256 µg/mL
MIC ([17]; CAMB + A000173039A [0.25 µg/mL]): 64 µg/mL
MIC ([17]; CAMB + A000173380A [4 µg/mL]): 256 µg/mL
MIC ([17]; CAMB + A000498432A [4 µg/mL]): >256 µg/mL
MIC ([17]; CAMB + A000499933A [0.0625 µg/mL]): >256 µg/mL
MIC ([17]; CAMB + A000500059A [0.0625 µg/mL]): >256 µg/mL
MIC ([17]; CAMB + A000500146A [0.0625 µg/mL]): 4 µg/mL
MIC ([17]; CAMB + A000501181A [4 µg/mL]): >256 µg/mL
MIC ([17]; CAMB + Colistin E1 [0.016 µg/mL]): 8 µg/mL
MIC ([17]; CAMB + Colistin E2 [0.016 µg/mL]): 2 µg/mL
MIC ([17]; CAMB + PMB [0.016 µg/mL]): 2 µg/mL
MIC ([17]; CAMB + PMBN [4 µg/mL]): >256 µg/mL
MIC ([17]; CAMB, 18 h, 37 °C, n = 4): >128 µg/mL
MIC ([17]; Table 6, CAMB): >256 µg/mL
MIC [18]: 16 µg/mL (≈ 3.73 µM)
MIC [19]: >128 µg/mL
